Entries after “also recorded” stand apart in the source; their conditions may differ.
Tests used:
[1] = system: cisplatin-induced nephrotoxicity in Wistar-Kyoto (WKY) rats; assay: Cisplatin-induced nephrotoxicity in rats; format: in vivo, rat
Description: Experiments were approved and carried out according to the guidelines of the Institutional Animal Care and Use Committee, Medical College of Wisconsin, Milwaukee, USA. Male Wistar-Kyoto (WKY) rats weighing 180-200 g (Charles River, Mass., USA). All animals were kept in a temperature-controlled environment with a 12-h light/dark cycle and were allowed free access to food and water at all times. An acclimatization period of 6 days was allowed for the rats before experimentation. The rats were assigned into four groups. […] Rats received drinking water ad libitum for seven days and on day 7 DMSO (Sigma Aldrich, St. Louis, Mo., USA) was administered (300-500 μl i.p.). […] These rats are pretreated with the EET analog […].) for seven days in drinking water and then on day 7 administered CP as a single injection (7 mg/kg i.p.) followed by another five days treatment with EET-A. […] One day before the rats were sacrificed, urine of each rat was collected over a 24-h period, and the volume was measured. Five days after CP or DMSO administration, rats were anesthetized for blood sample collection followed by euthanasia and tissue collection. Urine and plasma samples were kept frozen at -80° C. until analyzed. The kidneys were removed, washed with physiological saline and stored at -80° C. until used for RT-PCR analysis, thiobarbituric acid reactive substance (TBARS) measurement and caspase 3 activity assay. […] The levels of blood urea nitrogen (BUN) (BioAssay Systems, Hayward, Calif., USA) and serum creatinine (Cayman Chemical Company, Ann Arbor, Mich., USA) were measured spectrophotometrically using commercial kits. Urinary content of creatinine and protein were measured using commercial kits (Cayman Chemical Company, Ann Arbor, Mich., USA), and the activity of urinary N-acetyl-b-glucosaminidase (NAG) in the urine was measured by a kit from Diazyme (Diazyme Laboratories, Poway, Calif., USA). While urine content of kidney injury molecule-1 (KIM-1) was measured using ELISA (R&D Systems, Inc. Minneapolis, Minn., USA). Malondialdehyde (MDA) is a thiobarbituric acid reactive substance (TBARS) that is formed as an end-product of lipid peroxidation and serves as an important index of oxidative stress. […] Using a commercially available kit (Cayman Chemical Company, Ann Arbor, Mich., USA), MDA was measured spectrophotometrically after reaction with thiobarbituric acid. […] Louis, Mo., USA). Kidney homogenate was prepared with a lysis Buffer (50 mM HEPES, pH 7.4, with 5 mM CHAPS and 5 mM DTT). […] The caspase 3 activity is expressed as nmol of AMC/min/μL. Real-Time analysis was carried out to assess the expression of oxidative (gp91phox, NOX1, SOD1, SOD2, SOD3), inflammatory (TNF-α, IL-6, apoptotic (Bax, Bak, Bcl-2) and endoplasmic reticulum stress (GRP78, caspase 12) related genes in the kidney. Total RNA was isolated from kidney homogenate using TRIzol LS reagents (Invitrogen Life Technologies, Carlsbad, Calif., USA) according to the manufacturer's instructions. The isolated RNA was treated with RNase-free DNase (Invitrogen, Carlsbad, Calif., USA) to remove traces of genomic DNA contamination. The mRNA samples were quantified by spectrophotometry at 260 nm and 1 μg of total RNA was reverse-transcribed to cDNA using iScriptTM Select cDNA Synthesis Kit (Bio-Rad, Hercules, Calif., USA). The target gene expression was quantified by iScript One-Step RT-PCR Kit with SYBR green using MyiQTM Single Color Real-Time PCR Detection System (Bio-Rad Laboratories, Hercules, Calif., USA). Each amplified sample in all wells was analyzed for homogeneity using dissociation curve analysis using iQ5 Optical System Software, Version 2.1 (Bio-Rad Laboratories, Hercules, Calif., USA). […] In analyzing the relative expression of the target genes, the Ct values were normalized to a housekeeping gene (pgk1). Statistical analyses were carried out for at least 5-7 experimental samples in each experimental group. Primers used in this study were designed based on several earlier reports. […]

[2] = system: Hela, NCCIT and U87 cancer cell lines; assay: Cell viability by alamar blue assay in cancer cell lines; format: cell-based, human; conditions: 72 h
Method: (§1) In this study, HEK293, U87MG, Hela cell-lines were obtained from the ATCC (Manassas, Va., USA) (HEK293, U87MG, Hela), and NCCIT was collected from Department of Pediatrics, UT Southwestern Medical Center at Dallas, Tex., USA. All cell lines were maintained in DMEM or RPIM with 10% fetal bovine serum and penicillin/streptomycin purchased from Life Technologies (Grand Island, N.Y., USA). Cisplatin was purchased from either Sigma (St. Louis, Mo., USA) or CalBiochem/EMD Biosciences (Billerica, Mass., USA). Cells were seeded in 96-well plates at 500 to 4,000 cells per well depends on cell type. […] Cell viability was measured by alamar blue assay using resazurin (Sigma Aldrich) according to the manufacturer's guidelines. Viability results were measured by fluorescence/absorbance in a 96-well plate reader from BMG Labtech (Cary, N.C., USA) and the IC50 was calculated by GraphPad Prism5 software (GraphPad Software Inc, La Jolla, Calif., USA).

[3] = system: NCCIT cells; assay: Cell viability by alamar blue assay, cisplatin with concurrent EET-A; format: cell-based, human; conditions: concurrent application of EET-A and cisplatin; NCCIT cancer cell line
Method: as §1

For “Disodium (S)-2-(13-(3-pentylureido)tridec-8(Z)-enamido)succinate [EET-A]”, the BUN ([1]; 10 mg/kg/d p.o., cisplatin 7 mg/kg i.p., day 5 after cisplatin, vehicle 241±51) was 108 ± 30 mg/dL, the “plasma creatinine (PCr)” value ([1]; 10 mg/kg/d p.o., day 5 after cisplatin, vehicle 3.1±0.2) was 2.0 ± 0.2 mg/dL and the “kidney TBARS formation” value ([1]; 10 mg/kg/d p.o., vehicle 16±2) was 7 ± 1 µmol/g. The “reductions in renal mRNA expressions of inflammatory markers (TNF-α, IL-6, interleukin-1β)” value ([1]; cisplatin-administered rats) was 40-60%, the proteinuria ([1]; cisplatin-administered rats, vehicle 53±5) was 33 ± 8 mg/day and the “reductions in the elevated levels of serum creatinine and BUN” value ([1]; five days after cisplatin, vs. vehicle) was 30-50%. For the same substance, the NAG ([1]; urinary, 10 mg/kg/d p.o., vehicle 3.0±0.6) was 0.5±0.1 U/d, the KIM-1 ([1]; urinary, 10 mg/kg/d p.o., vehicle 296±94) was 85 ± 29 ng/day and the “reduction in urinary excretion of NAG and KIM-1” value ([1]; vs. cisplatin rats treated with vehicle) was 30-50%. The “reduction of cisplatin-induced proteinuria” value ([1]; vs. vehicle) was no less than 40%, the “reduction in elevated renal expressions of GRP78 and caspase 12 mRNAs” value ([1]; vs. vehicle treatment) was 2-4 fold and the “decrease in kidney expression of NOX1 and gp91phox mRNAs” value ([1]; vs. vehicle-treated cisplatin rats) was 2-3 folds. The “effect on cell number / growth” value [2] was “no observable effects; also recorded: no effect” and the “influence on cisplatin's chemotherapeutic effect” value [3] was “did not influence”.
